# Results: patent publication US20050119301A1, “Treatment of restenosis” (priority 2001, published 2005)
# Legend:
# [1] = tested on: Vascular smooth muscle cells (VSMC) derived from internal mammary artery (IMA); assay: Serum-induced VSMC proliferation, [3H]-thymidine incorporation; assay type: cell-based, human; details: for proliferation of IMA-derived VSMC (in words) / proliferation of IMA-derived VSMC at high concentrations (in words): 2.5% FBS; for proliferation of IMA-derived VSMC (in words): 0.01-100 mM tested, Cpd. 7 effect from 0.1 mM up to 1 mM
# Experimental: Vascular smooth muscle cells (VSMC) derived from internal mammary artery (IMA) were cultured in 10% FBS-DMEM. Cells were grown to confluence in LG (glucose 5 mM)-medium then trypsinized, diluted with 10% FBS-LG medium to about 10,000 cells/ml and 1 ml of suspension was) aliquoted into four 24-well plates. Cells were then allowed to grow for 2 days to visual confluence. LG serum-free media was changed for 48 h to synchronize most cells at Go/G1.
# After 24 h of serum-free medium, cells were treated with the compounds (Cpd. 5, Cpd. 7, Cpd. 8 or Cpd. 12) for 4 h and FBS was added (final concentration 2.5%) over night (18-20 hours). 4 wells were allocated for each treatment:
# Cell proliferation was induced by a variety of growth factors such as serum and platelet derived growth factor (PDGF).
# Media was changed to LG serum-free DMEM and cells were treated with [^3H]-thymidine at 1 μCi/well for 3 hours. Cells were washed twice with ice cold Dulbecco's PBS. Next, ice cold 0.2M HClO4 (1 ml/well) was added and cells were incubated on ice for 30 min. Cells were then washed three times with 0.5 ml/well of ice cold 0.2M HClO4. Media (0.5 ml/well of 0.2 M NaOH) was replaced and cells were incubate at 37° C. After 1 hour, cells were treated with acetic acid (6%, 0.2 ml/well), transferred to scintillation vials with 3 ml scintillation liquid (Instagel) and counted for 2 min per vial.
# [2] = biological target: T1, Soybean 15-lipoxygenase (SLO) (Glycine max, UniProt P08170); assay: Inhibition of lipoxygenase, SLO-induced oxidation of linoleate; assay type: biochemical; parameters: dose or concentration left out as unconfirmed
# T1 construct: purchased Sigma, St. Louis, Mo
# T1 sequence (P08170 1-839): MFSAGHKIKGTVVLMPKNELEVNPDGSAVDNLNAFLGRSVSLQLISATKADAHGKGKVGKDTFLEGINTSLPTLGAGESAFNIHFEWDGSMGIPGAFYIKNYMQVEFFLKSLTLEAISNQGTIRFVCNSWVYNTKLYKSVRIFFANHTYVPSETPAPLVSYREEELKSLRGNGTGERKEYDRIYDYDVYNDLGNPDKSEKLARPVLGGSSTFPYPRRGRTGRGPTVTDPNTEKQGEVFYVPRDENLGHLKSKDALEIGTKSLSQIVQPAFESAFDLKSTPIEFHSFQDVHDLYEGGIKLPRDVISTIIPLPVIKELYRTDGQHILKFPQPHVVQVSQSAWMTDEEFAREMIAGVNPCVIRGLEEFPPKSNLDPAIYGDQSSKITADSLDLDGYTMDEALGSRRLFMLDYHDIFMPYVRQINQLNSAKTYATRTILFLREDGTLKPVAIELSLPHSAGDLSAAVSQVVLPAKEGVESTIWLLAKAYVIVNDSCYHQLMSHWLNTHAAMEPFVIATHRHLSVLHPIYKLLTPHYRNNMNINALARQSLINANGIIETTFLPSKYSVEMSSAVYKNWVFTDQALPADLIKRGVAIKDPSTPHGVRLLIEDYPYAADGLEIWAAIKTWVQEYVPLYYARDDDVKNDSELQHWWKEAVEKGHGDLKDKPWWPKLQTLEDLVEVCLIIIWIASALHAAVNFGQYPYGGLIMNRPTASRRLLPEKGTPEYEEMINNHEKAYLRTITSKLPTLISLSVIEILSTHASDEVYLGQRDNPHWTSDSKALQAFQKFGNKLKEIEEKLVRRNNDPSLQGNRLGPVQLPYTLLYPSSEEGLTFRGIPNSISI
# Experimental: Soybean 15-lipoxygenase (SLO) is a suitable model of 15-lipoxygenase and was therefore used to assess the ability of Cpd. 7, Cpd. 8 and Cpd. 12 to inhibit this enzyme. SLO-induced oxidation of linoleate was performed as described previously (Upston et al., 1996). Briefly, linoleate (100 mM) in PBS was oxidized by SLO (60 U/mL) in the absence and presence of 10 mM Cpd. 7, Cpd. 8 or Cpd. 12, or 100 mM eicosatetraynoic acid (ETYA, positive control). Formation of linoleate hydroperoxide was monitored by UV 234 nm using the Perkin Elmer's UV/Vis Lambda 40 spectrophotomneter. The test was performed twice as single analysis. An appropriate concentration of alcohol (ethanol and isopropanol; 0.13% -0.2% v/v) was included in the respective control samples.
# [3] = tested on: horseradish peroxidase (HRP) plus hydrogen peroxide (H2O2); assay: Peroxidase-induced (HRP/H2O2) oxidation of linoleate; assay type: biochemical, horse radish; parameters: dose or concentration left out as unconfirmed
# Source text: The test is similar to the peroxyl scavenging described in section 4.5 above, except that horseradish peroxidase (HRP) plus hydrogen peroxide (H2O2), were used instead of the peroxyl radical generator. Increased level of heme is considered as a potential risk factor for atherosclerosis, and heme-containing proteins may be involved in the oxidative modification of LDL. In the presence of H2O2, heme proteins give rise to a powerful oxidant (referred to as compound I) that can oxidatively modify lipids, including those in LDL. We therefore tested the ability of the isoflavone to inhibit such lipid oxidation using horse radish peroxidase as the model heme protein. HRP/H2O2-induced oxidation of linoleate was as described principally by Witting et al (1997) by replacing LDL with linoleate. Linoleate stock was added to PBS at 37° C. to give a final concentration of 300 mM and oxidized by HRP (40 U/mL)/H2O2 (2 mM) in the absence and presence of either 10 mM of Cpd. 7, Cpd. 8 or Cpd. 12, or 25 mM BHT (positive control). Formation of linoleate hydroperoxide was monitored by UV 234 nm using the Perkin Elmer's UV/Vis Lambda 40 spectrophotometer. The test was performed twice as single analysis. An appropriate concentration of alcohol (ethanol and isopropanol; 0.13% -0.2% v/v) was included in the respective control samples.
smiles,measurement,setting,value
O=C1c2ccc(O)cc2OCC1c1ccc(O)cc1 (stereo not drawn) [Cpd. 5],proliferation of IMA-derived VSMC (in words),[1],relatively inactive
Oc1ccc(C2COc3cc(O)ccc3C2O)cc1 (stereo not drawn) [Cpd. 7],inhibition of soybean 15-lipoxygenase (in words),[2],neither Cpd. 7 nor Cpd. 8 were able to inhibit SLO
same,proliferation of IMA-derived VSMC (in words),[1],significantly inhibited proliferation
same,proliferation of IMA-derived VSMC at high concentrations (in words),[1]; 10 mM and 100 mM,relative increase in proliferation
same,inhibition of linoleic acid oxidation by HRP/H2O2 compound I (in words),[3],able to inhibit linoleic acid oxidation by compound I as effectively as 25 mM BHT
Oc1ccc(C2=Cc3ccc(O)cc3OC2)cc1 [Cpd. 12],inhibition of soybean 15-lipoxygenase (in words),[2],effective inhibitor of lipoxygenase type-1
same,cell damage,[1]; 10 mM and 100 mM,caused significant cell damage
same,proliferation of IMA-derived VSMC (in words),[1],did not appear to inhibit cellular proliferation
same,inhibition of linoleic acid oxidation by HRP/H2O2 compound I (in words),[3],inhibitory activity of Cpd. 7 and Cpd. 8 was greater than of an equimolar amount of Cpd. 12
Oc1ccc(C2COc3cc(O)ccc3C2O)cc1 (stereo not drawn) [Cpd. 8],inhibition of soybean 15-lipoxygenase (in words),[2],neither Cpd. 7 nor Cpd. 8 were able to inhibit SLO
same,proliferation of IMA-derived VSMC at high concentrations (in words),[1]; 10 mM and 100 mM,caused a significant increase in proliferation
same,inhibition of linoleic acid oxidation by HRP/H2O2 compound I (in words),[3],able to inhibit linoleic acid oxidation by compound I as effectively as 25 mM BHT
